≈ marks a conversion by molar mass, not a printed value.
What was measured:
Format in all cases: functional
Clostridioides difficile [1] = assay: Antimicrobial activity against daptomycin-resistant Clostridium difficile NAP1 incubated anaerobically at 37 degC for 48 hrs by agar dilution method; conditions: NAP1, 48 h
Staphylococcus aureus = assay: Antimicrobial activity against daptomycin-susceptible Staphylococcus aureus ATCC 29213 incubated anaerobically at 37 degC for 48 hrs by agar dilution method; conditions: ATCC 29213, 48 h
Enterococcus faecium = assay: Antimicrobial activity against daptomycin-resistant Enterococcus faecium ATCC 6569 incubated anaerobically at 37 degC for 48 hrs by agar dilution method; conditions: ATCC 6569, 48 h
Enterococcus faecalis = assay: Antimicrobial activity against daptomycin-resistant Enterococcus faecalis ATCC 49452 incubated anaerobically at 37 degC for 48 hrs by agar dilution method; conditions: ATCC 49452, 48 h
Clostridioides difficile [2] = assay: Antimicrobial activity against daptomycin-resistant Clostridium difficile ATCC 43596 infected in Syrian golden hamster model of Clostridium difficile-associated diarrhea assessed as protection against microbial infection by measuring survival at day 25 to 26 at 0.5 mg/kg treated once daily for 5 consecutive days starting 4 hrs after spore inoculation
Clostridioides difficile [3] = assay: Antimicrobial activity against metronidazole-resistant Clostridium difficile

| SMILES | MIC (Clostridioides difficile [1]) [µg/mL] | MIC (Staphylococcus aureus) [µg/mL] | MIC (Enterococcus faecium) [µg/mL] | MIC (Enterococcus faecalis) [µg/mL] | survival at 0.5 mg/kg (Clostridioides difficile [2]) [%] | MIC (Clostridioides difficile [3]) [µg/mL] |
| --- | --- | --- | --- | --- | --- | --- |
| CCCCCCCc1ccc(C(=O)N[C@@H](Cc2c[nH]c3ccccc23)C(=O)N[C@@H](CC(N)=O)C(=O)N[C@@H](CC(=O)O)C(=O)N[C@@H]2C(=O)NCC(=O)N[C@@H](CCCN)C(=O)N[C@H](CC(=O)O)C(=O)N[C@H](C)C(=O)N[C@@H](CC(=O)O)C(=O)NCC(=O)N[C@H](CO)C(=O)N[C@@H]([C@@H](C)CC(=O)O)C(=O)N[C@@H](CC(=O)c3ccccc3N)C(=O)O[C@@H]2C)cc1 | 0.5 (≈ 0.3 µM) | 0.25 (≈ 0.15 µM) | 4 (≈ 2.4 µM) | 8 (≈ 4.79 µM) | 80 | – |
| Cc1ncc([N+](=O)[O-])n1CCO [METRONIDAZOLE] | – | – | – | – | – | ≥ 8 |
| CCCCCC12CCC(C(=O)N[C@@H](Cc3c[nH]c4ccccc34)C(=O)N[C@@H](CC(N)=O)C(=O)N[C@@H](CC(=O)O)C(=O)N[C@@H]3C(=O)NCC(=O)N[C@@H](CCCN)C(=O)N[C@H](CC(=O)O)C(=O)N[C@H](C)C(=O)N[C@@H](CC(=O)O)C(=O)NCC(=O)N[C@H](CO)C(=O)N[C@@H]([C@@H](C)CC(=O)O)C(=O)N[C@@H](CC(=O)c4ccccc4N)C(=O)O[C@@H]3C)(CC1)CC2 | 1 (≈ 0.598 µM) | 0.25 (≈ 0.149 µM) | 16 (≈ 9.56 µM) | 32 (≈ 19.1 µM) | 60 | – |
| CCCCCCOc1ccc(-c2ccc(C(=O)N[C@@H](Cc3c[nH]c4ccccc34)C(=O)N[C@@H](CC(N)=O)C(=O)N[C@@H](CC(=O)O)C(=O)N[C@@H]3C(=O)NCC(=O)N[C@@H](CCCN)C(=O)N[C@H](CC(=O)O)C(=O)N[C@H](C)C(=O)N[C@@H](CC(=O)O)C(=O)NCC(=O)N[C@H](CO)C(=O)N[C@@H]([C@@H](C)CC(=O)O)C(=O)N[C@@H](CC(=O)c4ccccc4N)C(=O)O[C@@H]3C)cc2)cc1 | 2 (≈ 1.14 µM) | 0.5 (≈ 0.286 µM) | 1 (≈ 0.572 µM) | 2 (≈ 1.14 µM) | – | – |
| C[C@H]1NC(=O)C(CC(=O)O)NC(=O)[C@H](CCCN)NC(=O)CNC(=O)[C@@H](NC(=O)[C@H](CC(=O)O)NC(=O)[C@H](CC(N)=O)NC(=O)[C@H](Cc2c[nH]c3ccccc23)NC(=O)CCCCCc2ccccc2)[C@@H](C)OC(=O)[C@H](CC(=O)c2ccccc2N)NC(=O)[C@H]([C@@H](C)CC(=O)O)NC(=O)[C@@H](CO)NC(=O)CNC(=O)[C@H](CC(=O)O)NC1=O (single isomer, unassigned) | 16 (≈ 9.75 µM) | 16 (≈ 9.75 µM) | > 32 | > 32 | – | – |
| CC(C)CCCCCCCCCC(=O)N[C@@H](Cc1c[nH]c2ccccc12)C(=O)N[C@@H](CC(N)=O)C(=O)N[C@@H](CC(=O)O)C(=O)N[C@@H]1C(=O)NCC(=O)N[C@@H](CCCN)C(=O)NC(CC(=O)O)C(=O)N[C@H](C)C(=O)N[C@@H](CC(=O)O)C(=O)NCC(=O)N[C@H](CO)C(=O)N[C@@H]([C@@H](C)CC(=O)O)C(=O)N[C@@H](CC(=O)c2ccccc2N)C(=O)O[C@@H]1C (single isomer, unassigned) | 1 (≈ 0.601 µM) | 0.25 (≈ 0.15 µM) | 4 (≈ 2.41 µM) | > 32 | – | – |

Reference: ChEMBL document CHEMBL3576778, “Structure-Activity Relationship Studies of a Series of Semisynthetic Lipopeptides Leading to the Discovery of Surotomycin, a Novel Cyclic Lipopeptide Being Developed for the Treatment of Clostridium difficile-Associated Diarrhea” (J Med Chem, 2015)
